Data set [1] concerns caterpillars of the diamondback moth (Plutella xylostella). The data set can be described thus: Plutella test (leaf dip). The class given is in vivo. The method, then:
(§1) Plutella Test Solvent: 7 parts by weight of dimethylformamide Emulsifier: 2 parts by weight of alkylaryl polyglycol ether To produce a suitable preparation of active compound, 1 part by weight of active compound is mixed with the stated amounts of solvent and emulsifier and the concentrate is diluted with emulsifier-containing water to the desired concentration. Cabbages leaves (Brassica oleracea) are treated by being dipped into the active compound preparation of the desired concentration and populated with caterpillars of the diamondback moth (Plutella xylostella) while the leaves are still moist. After the desired period of time, the kill in % is determined. 100% means that all caterpillars have been killed; 0% means that none of the caterpillars have been killed.

The test system of data set [2] is Spodoptera exigua, resistant strain. The data set can be described thus: Spodoptera exigua test; resistant strain. The following applies: for Kill rate after 7d in %: resistant strain. The class given is in vivo. The method, then:
Spodoptera exigua Test; Resistant Strain
Solvent: 7 parts by weight of dimethylformamide
Emulsifier: 2 parts by weight of alkylaryl polyglycol ether
To produce a suitable preparation of active compound, 1 part by weight of active compound is mixed with the stated amounts of solvent and emulsifier and the concentrate is diluted with emulsifier-containing water to the desired concentration.
Cabbage leaves (Brassica oleracea) are treated by being dipped into the active compound preparation of the desired concentration and populated with caterpillars of the army worm (Spodoptera exigua, resistant strain) while the leaves are still moist.
After the desired period of time, the kill in % is determined. 100% means that all caterpillars have been killed; 0% means that none of the caterpillars have been killed.

Data set [3] has as its system caterpillars of the cotton bollworm (Heliothis armigera). The data set can be described thus: Heliothis armigera test (leaf dip). The class given is in vivo. How it is done: as §1, with “Heliothis armigera” for “Plutella”, “Soya bean” for “Cabbages”, “(Glycine max.)” for “(Brassica oleracea)”, “cotton bollworm (Heliothis armigera)” for “diamondback moth (Plutella xylostella)”

Data set [4] deals with larvae of the mustard beetle (Phaedon cochleariae). The data set can be described thus: Phaedon test (sprayed Chinese cabbage discs). It counts as in vivo. The following applies: for Kill rate after 7d in %: 100 g/ha. How it is done:
(§2) Phaedon Test Solvents: 78 parts by weight of acetone • • 1.5 parts by weight of dimethylformamide Emulsifier: 0.5 part by weight of alkylaryl polyglycol ether To produce a suitable preparation of active compound, 1 part by weight of active compound is mixed with the stated amounts of solvents and emulsifier and the concentrate is diluted with emulsifier-containing water to the desired concentration. Discs of Chinese cabbage (Brassica pekinensis) are sprayed with an active compound preparation of the desired concentration and, after drying, populated with larvae of the mustard beetle (Phaedon cochleariae). After the desired period of time, the activity in % is determined. 100% means that all beetle larvae have been killed; 0% means that none of the beetle larvae have been killed.

Data set [5] deals with caterpillars of the army worm (Spodoptera exigua). The data set can be described thus: Spodoptera exigua test (leaf dip). It counts as in vivo. How it is done:
as §1, with “Spodoptera exigua” for “Plutella”, “Cabbage” for “Cabbages”, “army worm (Spodoptera exigua)” for “diamondback moth (Plutella xylostella)”

Data set [6] relates to caterpillars of the army worm (Spodoptera frugiperda). The data set can be described thus: Spodoptera frugiperda test (SPODFR spray treatment). It counts as in vivo. The following applies: for Kill rate after 7d in %: 100 g/ha, spray treatment. The method, then:
Spodoptera frugiperda Test (SPODFR Spray Treatment) Solvents: 78 parts by weight of acetone • • 1.5 parts by weight of dimethylformamide Emulsifier: 0.5 part by weight of alkylaryl polyglycol ether To produce a suitable preparation of active compound, 1 part by weight of active compound is mixed with the stated amounts of solvents and emulsifier and the concentrate is diluted with emulsifier-containing water to the desired concentration. Discs of maize leaves (Zea mays) are sprayed with an active compound preparation of the desired concentration and after drying populated with caterpillars of the army worm (Spodoptera frugiperda). After the desired period of time, the activity in % is determined. 100% means that all of the caterpillars have been killed; 0% means that none of the caterpillars have been killed.

Data set [7] in a line: logP determination by HPLC (reversed-phase C18), EEC Directive 79/831 Annex V.A8. The note with it: HPLC reversed-phase C18, 43° C., acidic range pH 2.7. It counts as physicochemical. The method, then:
The logP values given in the tables and Preparation Examples above are determined in accordance with EEC Directive 79/831 Annex V.A8 by HPLC (High Performance Liquid Chromatography) on a reversed-phase column (C 18). Temperature: 43° C. The determination by LC-MS in the acidic range is carried out at pH 2.7 using 0.1% aqueous formic acid and acetonitrile (contains 0.1% formic acid) as mobile phases; linear gradient from 10% acetonitrile to 95% acetonitrile. Calibration is carried out using unbranched alkan-2-ones (having 3 to 16 carbon atoms) with known logP values (determination of the logP values by the retention times using linear interpolation between two successive alkanones).

Data set [8] deals with Spodoptera frugiperda larvae. The data set can be described thus: Spodoptera frugiperda test (treatment by watering). It counts as in vivo. The note with it: for Kill rate after 14d in %: 20 ppm, treatment by watering. How it is done: Spodoptera frugiperda Test Solvent: 7 parts by weight of dimethylformamide Emulsifier: 2 parts by weight of alkylaryl polyglycol ether To produce a suitable preparation of active compound, 1 part by weight of active compound is mixed with the stated amounts of solvent and emulsifier and the concentrate is diluted with water to the desired concentration. Maize plants (Zea mays) are watered with an active compound preparation of the desired concentration and infected with Spodoptera frugiperda larvae. After the desired period of time, the kill in % is determined. 100% means that all larvae have been killed; 0% means that none of the larvae have been killed.

The test system of data set [9] is green peach aphid (Myzus persicae). The data set can be described thus: Myzus test (MYZUPE spray treatment). The following applies: for Kill rate after 5d in %: 100 g/ha, spray treatment. It counts as in vivo. How it is done:
as §2, with “Myzus” for “Phaedon”, “Test (MYZUPE Spray Treatment)” for “Test”, “pekinensis), which are infested by all stages of the green peach aphid (Myzus persicae)” for “pekinensis)”, “concentration.” for “concentration and, after drying, populated with larvae of the mustard beetle (Phaedon cochleariae).”, “aphids” for “beetle larvae”

The test system is the same in data set [10]. The data set can be described thus: Myzus test; oral. The class given is in vivo. The following applies: for Kill rate after 5d in %: 100 ppm, oral. The method, then:
Myzus Test; Oral Solvent: 80 parts by weight of acetone To produce a suitable preparation of active compound, 1 part by weight of active compound is mixed with the stated amounts of solvent and the concentrate is diluted with water to the desired concentration. Vessels are populated with all stages of the green peach aphid (Myzus persicae) which are treated by sucking the active compound preparation of the desired concentration. After the desired period of time, the activity in % is determined. 100% means that all aphids have been killed; 0% means that none of the aphids have been killed.

Turning to `Cc1cc(Br)cc(C2=NOCCO2)c1NC(=O)c1cc(C(F)(F)F)nn1-c1ncccc1Cl` [Example I-1-11], the “activity in the Plutella test (in words)” value in data set [1] is reported as “good activity”. Besides, the “Kill rate after 7d in %” value in [1] (20 ppm) is recorded as 80%; in data set [2] (20 ppm), 80%; in data set [3] (20 ppm) it was 100%; in [4], 100%; in data set [5] (20 ppm), 100%; in [6], 100%. Further, in data set [2], the “activity in the Spodoptera exigua test, resistant strain (in words)” value (“activity … resistant strain (in words)” for short) was “good activity”. Further, the “activity in the Heliothis armigera test (in words)” value in data set [3] is reported as “good activity”. The “activity in the Phaedon test (in words)” value in [4] is “good activity”. Further, the “activity in the Spodoptera exigua test (in words)” value in data set [5] is listed as “good activity”. Moreover, the “activity in the Spodoptera frugiperda test, spray treatment (in words)” value in data set [6] is on record as “good activity”. For the same compound, the logP (commonly the decadic logarithm of the partition coefficient of the neutral form, usually between octanol and water) in [7] came to 3.58. In addition, the “activity in the Spodoptera frugiperda test, watering (in words)” value in data set [8] was “good activity”. In [8], the “Kill rate after 14d in %” value was 98%.

With `Cc1cccc(C2=NOCCN2)c1NC(=O)c1cc(Cl)nn1-c1ncccc1Cl` [Example I-1-17], the “activity in the Plutella test (in words)” value in [1] was “good activity”. For the same compound, the “Kill rate after 7d in %” value in data set [1] (4 ppm), in data set [2] (4 ppm), in [3] (4 ppm), in data set [5] (4 ppm) and in data set [6] was 100% each time. For the same compound, the “activity … resistant strain (in words)” value in data set [2] is “good activity”. The “activity in the Heliothis armigera test (in words)” value in data set [3] is “good activity”. Moreover, the “activity in the Phaedon test (in words)” value in [4] is “good activity”. Further, the “activity in the Myzus test, spray treatment (in words)” value in data set [9] is given as “good activity”. Moreover, the “Kill rate after 5d in %” value in [9] stood at 100%. Moreover, in [5], the “activity in the Spodoptera exigua test (in words)” value is “good activity”. In data set [6], the “activity in the Spodoptera frugiperda test, spray treatment (in words)” value is recorded as “good activity”. Further, in [7], the lipophilicity (logP) was determined as 1.65. Moreover, the “Kill rate after 14d in %” value in [8] is reported as 98%.

For `Cc1cc(I)cc(C2=NOCCN2)c1NC(=O)c1cc(C(F)(F)F)nn1-c1ncccc1Cl` [Example I-1-24], in data set [4], the “activity in the Phaedon test (in words)” value is recorded as “good activity” and the “Kill rate after 7d in %” value came out at 100%. Further, in data set [10], the “activity in the Myzus test, oral (in words)” value (“activity … oral (in words)” for short) is on record as “good activity” and the “Kill rate after 5d in %” value is given as 100%. Further, in data set [9], the “activity in the Myzus test, spray treatment (in words)” value is reported as “good activity” and the “Kill rate after 5d in %” value is 90%. In addition, in data set [6], the “activity in the Spodoptera frugiperda test, spray treatment (in words)” value is “good activity” and the “Kill rate after 7d in %” value is recorded as 100%. The compound further showed a logP in data set [7] of 2.66.

`Cc1cc(I)cc(C2=NOCCN2)c1NC(=O)c1cc(Br)cn1-c1ncccc1Cl` [Example I-1-22]: in data set [4], the “activity in the Phaedon test (in words)” value is “good activity” and the “Kill rate after 7d in %” value was 100%. In addition, in data set [10], the “activity … oral (in words)” value is “good activity” and the “Kill rate after 5d in %” value came out at 100%. Also, in data set [9], the “activity in the Myzus test, spray treatment (in words)” value is reported as “good activity” and the “Kill rate after 5d in %” value came to 100%. In data set [6], the “activity in the Spodoptera frugiperda test, spray treatment (in words)” value is given as “good activity” and the “Kill rate after 7d in %” value amounted to 100%. This compound showed a lipophilicity (logP) in [7] of 2.39.

As for `Cc1cc(I)cc(C2=NOCCN2)c1NC(=O)c1cc(Br)nn1-c1ncccc1Cl` [Example I-1-23], in data set [4], the “activity in the Phaedon test (in words)” value is given as “good activity” and the “Kill rate after 7d in %” value was determined as 100%. For the same compound, in [10], the “activity … oral (in words)” value is given as “good activity” and the “Kill rate after 5d in %” value was determined as 100%. For the same compound, in [9], the “activity in the Myzus test, spray treatment (in words)” value is “good activity” and the “Kill rate after 5d in %” value is given as 90%. Besides, in data set [6], the “activity in the Spodoptera frugiperda test, spray treatment (in words)” value is listed as “good activity” and the “Kill rate after 7d in %” value amounted to 100%. Also, the log partition coefficient (logP) in data set [7] came to 2.21.

`Cc1cc(Cl)cc(C2=NOCCO2)c1NC(=O)c1cc(C(F)(F)F)nn1-c1ncccc1Cl` [Example I-1-6]: the “activity in the Plutella test (in words)” value in data set [1] is recorded as “good activity”. Also, the “Kill rate after 7d in %” value in [1] (20 ppm), in [2] (20 ppm), in [4], in [5] (100 ppm) and in data set [6] was 100% each time. In addition, the “activity … resistant strain (in words)” value in [2] was “good activity”. Besides, the “activity in the Phaedon test (in words)” value in [4] is given as “good activity”. In addition, in [5], the “activity in the Spodoptera exigua test (in words)” value is recorded as “good activity”. For the same compound, in data set [6], the “activity in the Spodoptera frugiperda test, spray treatment (in words)” value is “good activity”. This compound also displayed a lipophilicity (logP) in data set [7] of 3.50. In addition, the “activity in the Spodoptera frugiperda test, watering (in words)” value in data set [8] was “good activity”. Besides, the “Kill rate after 14d in %” value in [8] worked out at 98%.

For the origin of these results see US8062995B2, “Dioxazine-substituted arylamides” (Bayer CropScience AG, priority 2005, dated 2011).
